Earlier results as cited in patent US9920373B2, “Biomarkers of response to proteasome inhibitors” (MILLENNIUM PHARMACEUTICALS, INC., priority 2011, dated 2018).

Conditions: upon exposure to aqueous solutions or plasma; cited from earlier work

SMILES: CC(C)C[C@H](NC(=O)CNC(=O)c1cc(Cl)ccc1Cl)B1OC(=O)C(CC(=O)O)(CC(=O)O)O1 [MLN9708, 2,2′-{2-[(1R)-1-({[(2,5dichlorobenzoyl)amino]acetyl}amino)-3-methylbutyl]-5-oxo-1,3,2-dioxaborolane-4,4-diyl}diacetic acid]
- hydrolysis to the biologically active form: immediately hydrolyzes to MLN2238
